The source of these data is ChEMBL document CHEMBL3390836, “Mannich- and LedererManasse-based analogues of the natural product S-(+)-curcuphenol as cancer proliferation and migration inhibitors” (Medchemcomm, 2012).

Assay [1] relates to MDA-MB-231. The assay can be described thus: Cytotoxicity against human MDA-MB-231 cells assessed as growth inhibition after 24 hrs by MTT assay. Format: cell-based. Particulars: MDA-MB-231, 24 h. (In general: Tetrazolium assays rely on reduction of a dye to a coloured formazan, in cell work by metabolically active cells.)
The subject of assay [2] is MDA-MB-231. The assay can be described thus: Growth inhibition of human MDA-MB-231 cells after 72 hrs by MTT assay. The class given is functional, cell-based. Particulars: MDA-MB-231, 72 h.
In a further assay the test system is MCF7. The assay can be described thus: Growth inhibition of human MCF7 cells after 72 hrs by MTT assay. Format: functional, cell-based. The note with it: MCF7, 72 h.
The subject of assay [3] is MDA-MB-231. The assay can be described thus: Antimigratory activity against human MDA-MB-231 cells after 24 hrs by wound-healing assay. Particulars: MDA-MB-231, 24 h. Format: functional, cell-based.

As usually defined, the IC50 is the concentration that gives 50% inhibition. As for `CCOC(CCN1COc2c([C@@H](C)CCC=C(C)C)ccc(C)c2C1)OCC`, the IC50 is greater than 20 µM with MDA-MB-231 [1], 11.3 µM with MDA-MB-231 [2], 13.2 µM in the assay with MCF7 and 3.1 µM in the assay with MDA-MB-231 [3].

`CCOC(CCNCc1c(C)ccc([C@@H](C)CCC=C(C)C)c1O)OCC`: the IC50 in the assay on MDA-MB-231 [1] is greater than 20 µM; with MDA-MB-231 [2] it was 14.9 µM; in the assay on MCF7, 10.3 µM; in the assay with MDA-MB-231 [3], greater than 20 µM.
